{"source": "patent US20240165282A1", "about": "“CONFORMATIONAL CONSTRAINED SOMATOSTATIN RECEPTOR 3 PEPTIDE LIGANDS AND THEIR CONJUGATES AND USES THEREOF” (STARGET PHARMA LTD., priority 2021, published 2024)", "key": {"hSSTR-4": {"target": "T1, hSSTR-4 (Homo sapiens, UniProt P31391)", "T1 construct": "host or cells: Chem-1 (Rat ChemiSCREEN) cells, membrane preparation", "T1 sequence (P31391 whole entry)": "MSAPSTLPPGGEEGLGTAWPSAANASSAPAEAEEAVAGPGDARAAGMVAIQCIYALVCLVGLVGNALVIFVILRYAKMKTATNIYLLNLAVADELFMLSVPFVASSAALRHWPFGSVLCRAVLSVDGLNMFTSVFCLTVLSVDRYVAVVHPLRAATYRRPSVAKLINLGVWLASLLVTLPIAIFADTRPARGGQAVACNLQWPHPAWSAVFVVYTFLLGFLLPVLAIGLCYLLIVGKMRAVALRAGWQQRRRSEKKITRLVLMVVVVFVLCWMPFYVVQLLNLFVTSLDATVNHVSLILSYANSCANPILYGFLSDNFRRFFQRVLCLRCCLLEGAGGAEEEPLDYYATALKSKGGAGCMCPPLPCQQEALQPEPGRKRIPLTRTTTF", "assay": "Radioligand binding, displacement of 125I-Tyr11-SRIF-14", "summary_of_the_method": "(§1)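 Assays ran at 25 °C in 25 mM HEPES pH 7.4 with 5 mM MgCl2, 1 mM CaCl2, 0.1% BSA and 1% DMSO. Filter-bound radioactivity gave IC50 by nonlinear least-squares regression.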"}, "[1]": {"system": "44 human cloned GPCRs and GPCR mediated cellular enzymatic activities", "assay": "Eurofins Cerep off-target safety pharmacology panel", "format": "binding", "settings": "1 micromolar", "experimental": "(§2) In this example, off-target interactions for SEQ ID NO.\n(§3) The assays were performed by Eurofins Cerep (Celle 1'Evescault, France). Compound binding was calculated as a % inhibition of the binding of a radioactively labeled ligand specific for each target. Compound enzyme inhibition effect was calculated as a % inhibition of control enzyme activity. In each experiment and if applicable, the respective reference compound was tested concurrently with SEQ ID NO. 3, and the data were compared with historical values determined at Eurofins. The experiment was accepted in accordance with Eurofins validation Standard Operating Procedure. Results showing an inhibition (or stimulation for assays run in basal conditions) higher than 50% are considered to represent significant effects of the test compounds.\nResults showing an inhibition (or stimulation) between 25% and 50% are indicative of weak to moderate effects (in most assays, they should be confirmed by further testing as they are within a range where more inter-experimental variability can occur). […]\nLow to moderate negative values have no real meaning and are attributable to variability of the signal around the control level. […] The results are expressed as a percent of control specific binding measured specific binding"}, "kappa (h) (KOP)": {"target": "kappa (h) (KOP) (Homo sapiens, UniProt P41145)", "assay": "Cerep off-target radioligand binding", "settings": "1 micromolar; agonist radioligand; read-out: % Activity: Inhibition of Control Specific Binding", "experimental": "as §2, §3"}, "AR(h)": {"system": "AR(h)", "assay": "Cerep off-target radioligand binding", "parameters": "species or system human", "settings": "1 micromolar; agonist radioligand", "experimental": "as §2, §3"}, "BZD (central)": {"system": "BZD (central)", "assay": "Cerep off-target radioligand binding", "parameters": "species or system human", "settings": "1 micromolar; agonist radioligand", "experimental": "as §2, §3"}, "[2]": {"system": "Ca2+ channel (L, dihydropyridine site)", "assay": "Cerep off-target radioligand binding", "parameters": "species or system human", "settings": "1 micromolar; antagonist radioligand", "experimental": "as §2, §3"}, "KV channel": {"system": "KV channel", "assay": "Cerep off-target radioligand binding", "parameters": "species or system human", "settings": "1 micromolar; antagonist radioligand", "experimental": "as §2, §3"}, "MAO-A": {"target": "T2, MAO-A (Rattus norvegicus, UniProt P21396)", "T2 construct": "Eurofins Cerep (assay service)", "assay": "Cerep off-target radioligand binding", "parameters": "species or system human", "settings": "1 micromolar; antagonist radioligand; read-out: % Activity: Inhibition of Control Specific Binding", "experimental": "as §2, §3"}, "NMDA": {"system": "NMDA", "assay": "Cerep off-target radioligand binding", "parameters": "species or system human", "settings": "1 micromolar; antagonist radioligand", "experimental": "as §2, §3"}, "Na+ channel (site 2)": {"system": "Na+ channel (site 2)", "assay": "Cerep off-target radioligand binding", "parameters": "species or system human", "settings": "1 micromolar; antagonist radioligand", "experimental": "as §2, §3"}, "COX1(h)": {"target": "T3, COX1(h) (Homo sapiens, UniProt P23219)", "T3 construct": "Eurofins Cerep (contract assay)", "assay": "Cerep off-target enzyme inhibition", "format": "biochemical", "settings": "1 micromolar; Enzymatic; read-out: % Activity: Inhibition of Control Specific Binding", "experimental": "as §2, §3"}, "COX2(h)": {"target": "T4, COX2(h) (Homo sapiens, UniProt P35354)", "T4 construct": "Eurofins Cerep (contract assay)", "T4 sequence (P35354 18-604)": "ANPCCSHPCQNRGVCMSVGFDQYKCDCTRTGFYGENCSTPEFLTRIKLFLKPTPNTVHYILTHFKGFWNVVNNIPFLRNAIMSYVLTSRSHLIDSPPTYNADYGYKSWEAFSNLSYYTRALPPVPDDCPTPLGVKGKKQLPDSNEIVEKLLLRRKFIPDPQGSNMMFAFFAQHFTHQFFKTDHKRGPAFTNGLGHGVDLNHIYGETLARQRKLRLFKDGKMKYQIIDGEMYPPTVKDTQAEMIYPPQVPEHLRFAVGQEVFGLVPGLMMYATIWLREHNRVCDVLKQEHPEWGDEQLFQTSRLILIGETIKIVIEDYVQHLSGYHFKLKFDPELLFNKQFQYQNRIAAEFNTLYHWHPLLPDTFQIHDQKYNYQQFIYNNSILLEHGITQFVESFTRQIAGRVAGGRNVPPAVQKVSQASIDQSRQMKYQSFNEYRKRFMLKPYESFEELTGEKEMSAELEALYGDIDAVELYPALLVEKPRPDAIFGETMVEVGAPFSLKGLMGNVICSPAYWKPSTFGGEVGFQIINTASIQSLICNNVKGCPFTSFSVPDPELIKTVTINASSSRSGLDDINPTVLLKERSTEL", "assay": "Cerep off-target enzyme inhibition", "format": "biochemical", "settings": "1 micromolar; Enzymatic; read-out: % Activity: Inhibition of Control Specific Binding", "experimental": "as §2, §3"}, "Lck kinase (h)": {"target": "T5, Lck kinase (h) (Homo sapiens, UniProt P06239)", "T5 construct": "Eurofins Cerep (contract assay)", "assay": "Cerep off-target enzyme inhibition", "format": "biochemical", "settings": "1 micromolar; Enzymatic; read-out: % Activity: Inhibition of Control Specific Binding", "experimental": "as §2, §3"}, "PDE3A (h)": {"target": "T6, PDE3A (h) (Homo sapiens, UniProt Q14432)", "T6 construct": "Eurofins Cerep (contract assay)", "T6 sequence (Q14432 whole entry)": "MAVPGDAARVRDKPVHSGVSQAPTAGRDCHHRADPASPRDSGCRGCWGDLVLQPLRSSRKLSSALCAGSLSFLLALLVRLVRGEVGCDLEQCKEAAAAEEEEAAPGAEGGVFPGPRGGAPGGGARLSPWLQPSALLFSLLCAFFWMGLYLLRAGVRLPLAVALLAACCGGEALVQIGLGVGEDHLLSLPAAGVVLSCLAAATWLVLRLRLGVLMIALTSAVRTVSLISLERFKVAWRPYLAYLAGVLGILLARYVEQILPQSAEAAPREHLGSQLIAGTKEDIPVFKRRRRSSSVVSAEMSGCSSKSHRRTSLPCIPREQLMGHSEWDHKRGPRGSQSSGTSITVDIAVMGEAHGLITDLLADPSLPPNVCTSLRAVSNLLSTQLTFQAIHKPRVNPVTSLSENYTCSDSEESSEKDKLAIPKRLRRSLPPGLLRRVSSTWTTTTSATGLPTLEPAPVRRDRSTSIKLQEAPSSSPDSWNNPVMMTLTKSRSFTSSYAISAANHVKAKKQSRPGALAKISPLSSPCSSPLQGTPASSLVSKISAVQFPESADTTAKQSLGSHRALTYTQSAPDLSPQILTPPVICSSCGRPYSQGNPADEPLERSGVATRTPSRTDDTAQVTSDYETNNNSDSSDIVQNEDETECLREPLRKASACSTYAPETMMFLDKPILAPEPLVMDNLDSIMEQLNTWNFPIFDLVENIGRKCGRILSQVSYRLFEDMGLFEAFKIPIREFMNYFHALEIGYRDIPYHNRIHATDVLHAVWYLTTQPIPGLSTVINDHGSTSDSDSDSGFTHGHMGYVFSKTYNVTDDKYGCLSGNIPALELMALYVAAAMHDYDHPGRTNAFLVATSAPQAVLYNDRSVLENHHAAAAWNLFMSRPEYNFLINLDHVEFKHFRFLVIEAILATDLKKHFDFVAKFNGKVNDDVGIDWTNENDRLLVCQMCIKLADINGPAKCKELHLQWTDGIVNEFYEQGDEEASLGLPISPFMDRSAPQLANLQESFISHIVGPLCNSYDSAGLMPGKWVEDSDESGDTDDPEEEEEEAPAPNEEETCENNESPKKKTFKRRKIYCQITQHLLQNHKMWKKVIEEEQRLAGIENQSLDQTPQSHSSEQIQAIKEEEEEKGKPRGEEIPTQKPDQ", "assay": "Cerep off-target enzyme inhibition", "format": "biochemical", "settings": "1 micromolar; Enzymatic; read-out: % Activity: Inhibition of Control Specific Binding", "experimental": "as §2, §3"}, "PDE4D2 (h)": {"target": "T7, PDE4D2 (h) (Homo sapiens, UniProt Q08499)", "T7 construct": "Eurofins Cerep (contract assay)", "T7 sequence (Q08499 303-809)": "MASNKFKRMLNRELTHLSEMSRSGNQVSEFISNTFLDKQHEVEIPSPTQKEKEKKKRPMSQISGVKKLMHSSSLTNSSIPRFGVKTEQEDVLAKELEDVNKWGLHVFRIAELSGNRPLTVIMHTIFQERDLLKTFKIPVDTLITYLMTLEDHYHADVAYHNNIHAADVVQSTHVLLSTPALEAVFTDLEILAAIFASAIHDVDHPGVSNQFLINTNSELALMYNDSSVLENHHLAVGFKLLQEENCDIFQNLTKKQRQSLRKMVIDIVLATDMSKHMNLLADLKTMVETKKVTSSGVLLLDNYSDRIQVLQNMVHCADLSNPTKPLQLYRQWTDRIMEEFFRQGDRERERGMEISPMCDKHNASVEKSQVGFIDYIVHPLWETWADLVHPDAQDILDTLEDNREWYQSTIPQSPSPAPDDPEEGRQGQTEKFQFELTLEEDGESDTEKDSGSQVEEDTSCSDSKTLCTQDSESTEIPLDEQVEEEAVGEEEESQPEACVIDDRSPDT", "assay": "Cerep off-target enzyme inhibition", "format": "biochemical", "settings": "1 micromolar; Enzymatic; read-out: % Activity: Inhibition of Control Specific Binding", "experimental": "as §2, §3"}, "acetylcholinesterase (h)": {"target": "T8, acetylcholinesterase (h) (Homo sapiens, UniProt P22303)", "T8 construct": "Eurofins Cerep (contract assay)", "T8 sequence (P22303 32-614)": "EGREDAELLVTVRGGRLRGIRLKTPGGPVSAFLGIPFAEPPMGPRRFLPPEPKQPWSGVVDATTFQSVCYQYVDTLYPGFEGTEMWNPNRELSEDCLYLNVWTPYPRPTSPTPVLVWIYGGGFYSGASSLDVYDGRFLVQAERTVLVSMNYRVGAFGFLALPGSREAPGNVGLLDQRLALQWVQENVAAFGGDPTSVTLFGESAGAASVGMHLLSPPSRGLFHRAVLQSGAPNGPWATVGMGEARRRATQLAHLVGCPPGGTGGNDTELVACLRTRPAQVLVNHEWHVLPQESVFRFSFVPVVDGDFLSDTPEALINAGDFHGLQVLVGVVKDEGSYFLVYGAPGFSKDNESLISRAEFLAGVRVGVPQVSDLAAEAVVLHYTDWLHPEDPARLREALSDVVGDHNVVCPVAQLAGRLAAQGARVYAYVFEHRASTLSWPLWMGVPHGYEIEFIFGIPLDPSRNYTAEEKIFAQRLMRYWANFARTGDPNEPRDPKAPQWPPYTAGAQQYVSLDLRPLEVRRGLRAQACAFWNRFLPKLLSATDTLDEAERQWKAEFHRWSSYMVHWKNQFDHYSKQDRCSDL", "assay": "Cerep off-target enzyme inhibition", "format": "biochemical", "settings": "1 micromolar; Enzymatic; read-out: % Activity: Inhibition of Control Specific Binding", "experimental": "as §2, §3"}, "SSTR5": {"target": "SSTR5 (Homo sapiens, UniProt P35346)", "sequence (P35346 whole entry)": "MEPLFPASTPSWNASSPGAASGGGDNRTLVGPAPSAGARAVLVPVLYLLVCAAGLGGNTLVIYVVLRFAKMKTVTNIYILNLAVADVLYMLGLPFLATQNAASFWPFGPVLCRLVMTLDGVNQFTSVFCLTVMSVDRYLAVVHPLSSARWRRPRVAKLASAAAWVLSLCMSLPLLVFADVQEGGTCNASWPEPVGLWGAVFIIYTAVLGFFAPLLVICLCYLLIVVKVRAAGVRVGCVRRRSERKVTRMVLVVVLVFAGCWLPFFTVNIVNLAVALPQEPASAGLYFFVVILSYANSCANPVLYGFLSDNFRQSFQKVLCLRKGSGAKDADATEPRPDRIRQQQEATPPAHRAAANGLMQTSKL", "assay": "Radioligand binding, displacement of 125I-Tyr11-SRIF-14", "parameters": "host or cells: Chem-1 (Rat ChemiSCREEN) cells, membrane preparation", "summary_of_the_method": "as §1"}, "SSTR1": {"target": "SSTR1 (Homo sapiens, UniProt P30872)", "sequence (P30872 whole entry)": "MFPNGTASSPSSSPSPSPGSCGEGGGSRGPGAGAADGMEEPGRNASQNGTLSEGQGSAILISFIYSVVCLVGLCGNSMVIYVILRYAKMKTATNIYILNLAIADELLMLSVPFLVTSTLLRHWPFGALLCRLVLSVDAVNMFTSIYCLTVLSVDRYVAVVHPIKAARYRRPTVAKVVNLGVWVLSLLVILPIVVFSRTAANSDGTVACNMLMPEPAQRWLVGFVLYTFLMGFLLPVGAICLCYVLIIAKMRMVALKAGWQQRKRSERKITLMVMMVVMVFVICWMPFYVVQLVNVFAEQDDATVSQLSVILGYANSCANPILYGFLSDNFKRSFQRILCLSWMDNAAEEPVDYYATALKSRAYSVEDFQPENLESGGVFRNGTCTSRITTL", "assay": "Radioligand binding, displacement of 125I-Tyr11-SRIF-14", "parameters": "host or cells: CHO (Chinese Hamster Ovary) cells, membrane preparation", "summary_of_the_method": "as §1"}, "SSTR2": {"target": "SSTR2 (Homo sapiens, UniProt P30874)", "sequence (P30874 whole entry)": "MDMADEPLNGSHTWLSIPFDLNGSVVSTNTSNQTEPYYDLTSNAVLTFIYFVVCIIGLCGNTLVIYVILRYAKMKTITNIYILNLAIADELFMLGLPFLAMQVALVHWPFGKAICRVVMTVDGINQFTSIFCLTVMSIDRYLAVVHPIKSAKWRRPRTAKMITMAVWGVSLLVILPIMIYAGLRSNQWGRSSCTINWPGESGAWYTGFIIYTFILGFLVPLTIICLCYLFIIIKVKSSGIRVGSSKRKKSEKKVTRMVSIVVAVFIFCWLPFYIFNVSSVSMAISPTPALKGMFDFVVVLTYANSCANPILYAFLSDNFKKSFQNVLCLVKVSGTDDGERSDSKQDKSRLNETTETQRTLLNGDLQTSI", "assay": "Radioligand binding, displacement of 125I-Tyr11-SRIF-14", "parameters": "host or cells: CHO (Chinese Hamster Ovary) cells, membrane preparation", "summary_of_the_method": "as §1"}, "SSTR3": {"target": "SSTR3 (Homo sapiens, UniProt P32745)", "sequence (P32745 whole entry)": "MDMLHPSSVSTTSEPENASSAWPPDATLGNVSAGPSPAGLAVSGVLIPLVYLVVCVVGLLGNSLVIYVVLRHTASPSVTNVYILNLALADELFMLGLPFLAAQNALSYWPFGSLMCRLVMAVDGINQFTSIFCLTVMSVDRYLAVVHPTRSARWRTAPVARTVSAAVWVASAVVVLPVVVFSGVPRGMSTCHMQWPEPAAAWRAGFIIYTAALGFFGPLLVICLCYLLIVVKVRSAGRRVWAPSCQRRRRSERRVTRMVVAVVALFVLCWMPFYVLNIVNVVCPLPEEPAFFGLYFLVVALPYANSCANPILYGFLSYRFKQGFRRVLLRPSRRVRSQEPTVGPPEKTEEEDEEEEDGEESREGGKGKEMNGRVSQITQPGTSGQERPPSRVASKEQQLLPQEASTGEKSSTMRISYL", "assay": "Radioligand binding, displacement of 125I-Tyr11-SRIF-14", "parameters": "host or cells: CHO (Chinese Hamster Ovary) cells, membrane preparation", "summary_of_the_method": "as §1"}}, "note": "*1 amine or outer side, *2 acyl side, *3 side chain or, on linkers, in order; H or OH if unused. Where a SMILES comes first, the peptide text is derived from it. Bridges are numbered along the chain shown (N, C = ends). [ ]: non-standard residue; d: D form. The star is where a group is joined. DOTA = O=C(O)CN1CCN(CC(=O)O)CCN(CC(=O)*)CCN(CC(=O)O)CC1; N(2-mercaptoethyl)Gly = O=C(CN(CCS[*:3])[*:1])[*:2]"}
{"smiles": "C[C@@H](O)[C@@H]1NC(=O)[C@H](CCCCN)NC(=O)[C@@H](Cc2c[nH]c3ccccc23)NC(=O)[C@H](Cc2ccccc2)NC(=O)[C@@H](NC(=O)[C@H](CCCNC(=N)N)NC(=O)[C@@H](Cc2ccccc2)NC(=O)CN2CCN(CC(=O)O)CCN(CC(=O)O)CCN(CC(=O)O)CC2)CSSCCN(CC(N)=O)C(=O)[C@H](Cc2ccccc2)NC1=O", "note": "[SEQ ID NO: 3, DOTA-D-Phe^1-Arg^2-Cys^3-Phe^4-D-Trp^5-Lys^6-Thr^7-Phe^8-NTEG^9-NH2 cyclo 3-9] ({DOTA}-[dF]RCF[dW]KTF[N(2-mercaptoethyl)Gly]-NH2; disulfide 3-9)", "values": [{"measurement": "IC50", "setting": "hSSTR-4", "value": "> 1000", "unit": "nM"}, {"measurement": "Ki", "setting": "hSSTR-4", "value": "> 1000", "unit": "nM"}, {"measurement": "Hill coefficient (nH)", "setting": "hSSTR-4; hSSTR-4", "value": 1.14}, {"measurement": "off-target interactions with opiate receptors", "setting": "[1]", "value": "not indicated"}, {"measurement": "off-target interactions, safety pharmacology panel (in words)", "setting": "[1]", "value": "no interaction with human cloned GPCRs of clinical significance"}, {"measurement": "inhibition at 1 µM", "setting": "kappa (h) (KOP)", "value": 10, "unit": "%"}, {"measurement": "% Activity: Inhibition of Control Specific Binding", "setting": "AR(h)", "value": "−9", "unit": "%"}, {"measurement": "% Activity: Inhibition of Control Specific Binding", "setting": "BZD (central)", "value": "−7", "unit": "%"}, {"measurement": "% Activity: Inhibition of Control Specific Binding", "setting": "[2]", "value": "−10", "unit": "%"}, {"measurement": "% Activity: Inhibition of Control Specific Binding", "setting": "KV channel", "value": "−5", "unit": "%"}, {"measurement": "inhibition at 1 µM", "setting": "MAO-A", "value": 3, "unit": "%"}, {"measurement": "% Activity: Inhibition of Control Specific Binding", "setting": "NMDA", "value": 10, "unit": "%"}, {"measurement": "% Activity: Inhibition of Control Specific Binding", "setting": "Na+ channel (site 2)", "value": 3, "unit": "%"}, {"measurement": "inhibition at 1 µM", "setting": "COX1(h)", "value": 9, "unit": "%"}, {"measurement": "inhibition at 1 µM", "setting": "COX2(h)", "value": 18, "unit": "%"}, {"measurement": "inhibition at 1 µM", "setting": "Lck kinase (h)", "value": -4, "unit": "%"}, {"measurement": "inhibition at 1 µM", "setting": "PDE3A (h)", "value": 0, "unit": "%"}, {"measurement": "inhibition at 1 µM", "setting": "PDE4D2 (h)", "value": -2, "unit": "%"}, {"measurement": "inhibition at 1 µM", "setting": "acetylcholinesterase (h)", "value": 6, "unit": "%"}, {"measurement": "IC50", "setting": "SSTR5", "value": "> 1000", "unit": "nM"}, {"measurement": "Ki", "setting": "SSTR5", "value": 660, "unit": "nM"}, {"measurement": "Hill coefficient (nH)", "setting": "SSTR5; hSSTR-5", "value": 1.57}, {"measurement": "IC50", "setting": "SSTR1", "value": 310, "unit": "nM"}, {"measurement": "Ki", "setting": "SSTR1", "value": 260, "unit": "nM"}, {"measurement": "Hill coefficient (nH)", "setting": "SSTR1; hSSTR-1", "value": 0.86}, {"measurement": "IC50", "setting": "SSTR2", "value": 590, "unit": "nM"}, {"measurement": "Ki", "setting": "SSTR2", "value": 310, "unit": "nM"}, {"measurement": "Hill coefficient (nH)", "setting": "SSTR2; hSSTR-2", "value": 1.62}, {"measurement": "IC50", "setting": "SSTR3", "value": 0.83, "unit": "nM"}, {"measurement": "Ki", "setting": "SSTR3", "value": 0.28, "unit": "nM"}, {"measurement": "affinity and selectivity to SSTR3 (in words)", "setting": "SSTR3; binding data, listed as DOTA conjugate of SEQ ID NO: 1", "value": "did not interfere with the binding affinity and selectivity of SEQ ID NO: 1"}, {"measurement": "Hill coefficient (nH)", "setting": "SSTR3; hSSTR-3", "value": 1.15}]}
